In patent publication US20240270762A1, “PENICILLIN-BINDING PROTEIN INHIBITORS” (priority 2021, published 2024):
Values after ≈ are worked out from the molar mass of the structure shown.

What was measured:
P. aeruginosa ATCC 27853 = assay: microbe, parasite or virus in culture; type: cell-based; conditions: Pseudomonas aeruginosa, ATCC27853, read-out: Minimum inhibitory concentration, P. aeruginosa ATCC 27853
N. gonorrhoeae WHO Z = assay: Liquid broth MIC in Fastidious broth; conditions: Neisseria gonorrhoeae, read-out: Minimum Inhibitory Concentration (MIC), N. gonorrhoeae WHO Z
N. gonorrhoeae WHO G = assay: Liquid broth MIC in Fastidious broth; conditions: Neisseria gonorrhoeae, read-out: Minimum Inhibitory Concentration (MIC), N. gonorrhoeae WHO G
[1] = molecular target: T1, PBP1a from Acinetobacter baumannii (ATCC 19606) (Acinetobacter baumannii, UniProt A0ABX6CK30); assay: Bocillin-FL fluorescence polarization competition binding, A. baumannii PBP1a; conditions: fluorescence polarization competition binding assay using Bocillin-FL; read-out: A. baumannii PBP1a Potency
T1 sequence (A0ABX6CK30 1-851): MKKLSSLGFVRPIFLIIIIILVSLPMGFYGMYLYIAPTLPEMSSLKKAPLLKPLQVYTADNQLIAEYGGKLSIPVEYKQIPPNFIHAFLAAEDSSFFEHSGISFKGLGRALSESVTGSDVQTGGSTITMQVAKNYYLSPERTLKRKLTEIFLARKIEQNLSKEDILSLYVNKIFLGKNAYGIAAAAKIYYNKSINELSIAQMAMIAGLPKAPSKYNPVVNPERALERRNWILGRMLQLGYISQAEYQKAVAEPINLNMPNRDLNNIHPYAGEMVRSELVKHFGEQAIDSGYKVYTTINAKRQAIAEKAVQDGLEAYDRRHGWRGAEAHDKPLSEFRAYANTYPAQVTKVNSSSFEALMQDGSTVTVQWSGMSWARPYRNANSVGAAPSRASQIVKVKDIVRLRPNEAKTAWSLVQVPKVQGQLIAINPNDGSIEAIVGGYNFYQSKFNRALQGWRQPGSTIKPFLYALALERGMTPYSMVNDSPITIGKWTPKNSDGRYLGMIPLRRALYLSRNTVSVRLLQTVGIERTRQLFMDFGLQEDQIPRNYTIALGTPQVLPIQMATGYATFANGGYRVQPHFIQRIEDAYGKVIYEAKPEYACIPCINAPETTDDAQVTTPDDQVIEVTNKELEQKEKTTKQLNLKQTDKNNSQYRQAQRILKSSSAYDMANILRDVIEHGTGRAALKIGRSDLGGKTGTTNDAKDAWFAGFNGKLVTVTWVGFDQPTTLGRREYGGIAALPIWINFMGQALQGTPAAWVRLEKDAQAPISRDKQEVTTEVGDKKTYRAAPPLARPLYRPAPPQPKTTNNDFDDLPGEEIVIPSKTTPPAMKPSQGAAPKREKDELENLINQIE
Method in brief: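 Purified PBPs pre-incubated with inhibitor (E. coli PBP3 1.5 μM, 30 min; P. aeruginosa PBP3 0.75 μM, A. baumannii PBP1a 1 μM and PBP3 0.2 μM, 15 min), then Bocillin-FL 0.1 μM (0.05 μM for PBP1a) added; FP read up to 60 min. EC50 = concentration halving bound Bocillin-FL.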

N. gonorrhoeae FA1090 = assay: Liquid broth MIC in Fastidious broth; conditions: Neisseria gonorrhoeae, FA1090, read-out: Minimum Inhibitory Concentration (MIC), N. gonorrhoeae FA 1090

O=C(CN1CCN(C(=O)NC(C(=O)N[C@H]2Cc3ccc(F)c(C(=O)O)c3OB2O)c2cc(F)c(O)c(O)c2Cl)C(=O)C1=O)Nc1cccc(O)c1 (stereo partly drawn) [Example 231, (3R)-3-(2-(2-chloro-5-fluoro-3,4-dihydroxyphenyl)-2-(4-(2-((3-hydroxyphenyl)amino)-2-oxoethyl)-2,3-dioxopiperazine-1-carboxamido)acetamido)-7-fluoro-2-hydroxy-3,4-dihydro-2H-benzo[e][1,2]oxaborinine-8-carboxylic acid]
MIC (P. aeruginosa ATCC 27853): < 1 µg/mL
MIC (N. gonorrhoeae WHO Z): 16 to 32 µg/mL (≈ 21.9 to 43.7 µM)
MIC (N. gonorrhoeae WHO G): 4 to 8 µg/mL (≈ 5.47 to 10.9 µM)
IC50 [1]: > 250 µM
MIC (N. gonorrhoeae FA1090): 1 to 2 µg/mL (≈ 1.37 to 2.73 µM)

O=C(CN1CCN(C(=O)NC(C(=O)N[C@H]2Cc3ccc(F)c(C(=O)O)c3OB2O)c2cc(F)c(O)c(O)c2Cl)C(=O)C1=O)Nc1ccccc1 (stereo partly drawn) [Example 232, (3R)-3-(2-(2-chloro-5-fluoro-3,4-dihydroxyphenyl)-2-(2,3-dioxo-4-(2-oxo-2-(phenylamino)ethyl)piperazine-1-carboxamido)acetamido)-7-fluoro-2-hydroxy-3,4-dihydro-2H-benzo[e][1,2]oxaborinine-8-carboxylic acid]
MIC (P. aeruginosa ATCC 27853): 2 to 4 µg/mL (≈ 2.79 to 5.59 µM)
MIC (N. gonorrhoeae WHO Z): 16 to 32 µg/mL (≈ 22.4 to 44.7 µM)
MIC (N. gonorrhoeae WHO G): 16 to 32 µg/mL (≈ 22.4 to 44.7 µM)
IC50 [1]: > 250 µM
MIC (N. gonorrhoeae FA1090): 1 to 2 µg/mL (≈ 1.4 to 2.79 µM)

O=C(CN1CCN(C(=O)NC(C(=O)N[C@H]2Cc3ccc(F)c(C(=O)O)c3OB2O)c2cc(F)c(O)c(O)c2Cl)C(=O)C1=O)Nc1ccncc1 (stereo partly drawn) [Example 233, (3R)-3-(2-(2-chloro-5-fluoro-3,4-dihydroxyphenyl)-2-(2,3-dioxo-4-(2-oxo-2-(pyridin-4-ylamino)ethyl)piperazine-1-carboxamido)acetamido)-7-fluoro-2-hydroxy-3,4-dihydro-2H-benzo[e][1,2]oxaborinine-8-carboxylic acid]
MIC (P. aeruginosa ATCC 27853): < 1 µg/mL
MIC (N. gonorrhoeae WHO Z): 16 to 32 µg/mL (≈ 22.3 to 44.6 µM)
MIC (N. gonorrhoeae WHO G): 4 to 8 µg/mL (≈ 5.58 to 11.2 µM)
IC50 [1]: > 250 µM
MIC (N. gonorrhoeae FA1090): 1 to 2 µg/mL (≈ 1.4 to 2.79 µM)

O=C(CN1CCN(C(=O)NC(C(=O)N[C@H]2Cc3ccc(F)c(C(=O)O)c3OB2O)c2cc(F)c(O)c(O)c2Cl)C(=O)C1=O)Nc1cccnc1 (stereo partly drawn) [Example 234, (3R)-3-(2-(2-chloro-5-fluoro-3,4-dihydroxyphenyl)-2-(2,3-dioxo-4-(2-oxo-2-(pyridin-3-ylamino)ethyl)piperazine-1-carboxamido)acetamido)-7-fluoro-2-hydroxy-3,4-dihydro-2H-benzo[e][1,2]oxaborinine-8-carboxylic acid]
MIC (P. aeruginosa ATCC 27853): 2 to 4 µg/mL (≈ 2.79 to 5.58 µM)
MIC (N. gonorrhoeae WHO Z): 16 to 32 µg/mL (≈ 22.3 to 44.6 µM)
MIC (N. gonorrhoeae WHO G): 4 to 8 µg/mL (≈ 5.58 to 11.2 µM)
IC50 [1]: > 250 µM
MIC (N. gonorrhoeae FA1090): 1 to 2 µg/mL (≈ 1.4 to 2.79 µM)

O=C(CN1CCN(C(=O)NC(C(=O)N[C@H]2Cc3ccc(F)c(C(=O)O)c3OB2O)c2cc(F)c(O)c(O)c2Cl)C(=O)C1=O)Nc1nccs1 (stereo partly drawn) [Example 235, (3R)-3-(2-(2-chloro-5-fluoro-3,4-dihydroxyphenyl)-2-(2,3-dioxo-4-(2-oxo-2-(thiazol-2-ylamino)ethyl)piperazine-1-carboxamido)acetamido)-7-fluoro-2-hydroxy-3,4-dihydro-2H-benzo[e][1,2]oxaborinine-8-carboxylic acid]
MIC (P. aeruginosa ATCC 27853): 2 to 4 µg/mL (≈ 2.77 to 5.53 µM)
MIC (N. gonorrhoeae WHO Z): 16 to 32 µg/mL (≈ 22.1 to 44.3 µM)
MIC (N. gonorrhoeae WHO G): 4 to 8 µg/mL (≈ 5.53 to 11.1 µM)
IC50 [1]: > 250 µM
MIC (N. gonorrhoeae FA1090): 1 to 2 µg/mL (≈ 1.38 to 2.77 µM)

O=C(CN1CCN(C(=O)NC(C(=O)N[C@H]2Cc3ccc(F)c(C(=O)O)c3OB2O)c2cc(F)c(O)c(O)c2Cl)C(=O)C1=O)NCc1cccc(O)c1 (stereo partly drawn) [Example 237, (3R)-3-(2-(2-chloro-5-fluoro-3,4-dihydroxyphenyl)-2-(4-(2-((3-hydroxybenzyl)amino)-2-oxoethyl)-2,3-dioxopiperazine-1-carboxamido)acetamido)-7-fluoro-2-hydroxy-3,4-dihydro-2H-benzo[e][1,2]oxaborinine-8-carboxylic acid]
MIC (P. aeruginosa ATCC 27853): 2 to 4 µg/mL (≈ 2.68 to 5.36 µM)
MIC (N. gonorrhoeae WHO Z): 16 to 32 µg/mL (≈ 21.5 to 42.9 µM)
MIC (N. gonorrhoeae WHO G): 4 to 8 µg/mL (≈ 5.36 to 10.7 µM)
IC50 [1]: > 250 µM
MIC (N. gonorrhoeae FA1090): 1 to 2 µg/mL (≈ 1.34 to 2.68 µM)

O=C(CN1CCN(C(=O)NC(C(=O)N[C@H]2Cc3ccc(F)c(C(=O)O)c3OB2O)c2cc(F)c(O)c(O)c2Cl)C(=O)C1=O)NCc1ccccc1 (some centres unmarked) [Example 238]
MIC (P. aeruginosa ATCC 27853): 2 to 4 µg/mL (≈ 2.74 to 5.48 µM)
MIC (N. gonorrhoeae WHO Z): 16 to 32 µg/mL (≈ 21.9 to 43.8 µM)
MIC (N. gonorrhoeae WHO G): 4 to 8 µg/mL (≈ 5.48 to 11 µM)
IC50 [1]: > 250 µM
MIC (N. gonorrhoeae FA1090): 1 to 2 µg/mL (≈ 1.37 to 2.74 µM)

O=C(CN1CCN(C(=O)N[C@@H](C(=O)N[C@H]2Cc3ccc(F)c(C(=O)O)c3OB2O)c2cc(F)c(O)c(O)c2Cl)C(=O)C1=O)NCc1ccncc1 [Example 239, (R)-3-((R)-2-(2-chloro-5-fluoro-3,4-dihydroxyphenyl)-2-(2,3-dioxo-4-(2-oxo-2-((pyridin-4-ylmethyl)amino)ethyl)piperazine-1-carboxamido)acetamido)-7-fluoro-2-hydroxy-3,4-dihydro-2H-benzo[e][1,2]oxaborinine-8-carboxylic acid]
MIC (P. aeruginosa ATCC 27853): 2 to 4 µg/mL (≈ 2.74 to 5.47 µM)
MIC (N. gonorrhoeae WHO Z): 16 to 32 µg/mL (≈ 21.9 to 43.8 µM)
MIC (N. gonorrhoeae WHO G): 4 to 8 µg/mL (≈ 5.47 to 10.9 µM)
IC50 [1]: > 250 µM
MIC (N. gonorrhoeae FA1090): 1 to 2 µg/mL (≈ 1.37 to 2.74 µM)

O=C(CN1CCN(C(=O)NC(C(=O)N[C@H]2Cc3ccc(F)c(C(=O)O)c3OB2O)c2cc(F)c(O)c(O)c2Cl)C(=O)C1=O)NCc1cccnc1 (stereo partly drawn) [Example 240, (3R)-3-(2-(2-chloro-5-fluoro-3,4-dihydroxyphenyl)-2-(2,3-dioxo-4-(2-oxo-2-((pyridin-3-ylmethyl)amino)ethyl)piperazine-1-carboxamido)acetamido)-7-fluoro-2-hydroxy-3,4-dihydro-2H-benzo[e][1,2]oxaborinine-8-carboxylic acid]
MIC (P. aeruginosa ATCC 27853): < 1 µg/mL
MIC (N. gonorrhoeae WHO Z): 16 to 32 µg/mL (≈ 21.9 to 43.8 µM)
MIC (N. gonorrhoeae WHO G): 4 to 8 µg/mL (≈ 5.47 to 10.9 µM)
IC50 [1]: > 250 µM
MIC (N. gonorrhoeae FA1090): 1 to 2 µg/mL (≈ 1.37 to 2.74 µM)

O=C(CN1CCN(C(=O)N[C@@H](C(=O)N[C@H]2Cc3ccc(F)c(C(=O)O)c3OB2O)c2cc(F)c(O)c(O)c2Cl)C(=O)C1=O)NCc1nccs1 [Example 241, (R)-3-((R)-2-(2-chloro-5-fluoro-3,4-dihydroxyphenyl)-2-(2,3-dioxo-4-(2-oxo-2-((thiazol-2-ylmethyl)amino)ethyl)piperazine-1-carboxamido)acetamido)-7-fluoro-2-hydroxy-3,4-dihydro-2H-benzo[e][1,2]oxaborinine-8-carboxylic acid]
MIC (P. aeruginosa ATCC 27853): < 1 µg/mL
MIC (N. gonorrhoeae WHO Z): 16 to 32 µg/mL (≈ 21.7 to 43.4 µM)
MIC (N. gonorrhoeae WHO G): 4 to 8 µg/mL (≈ 5.43 to 10.9 µM)
IC50 [1]: > 250 µM
MIC (N. gonorrhoeae FA1090): 1 to 2 µg/mL (≈ 1.36 to 2.71 µM)

O=C(NCCN1CCN(C(=O)NC(C(=O)N[C@H]2Cc3ccc(F)c(C(=O)O)c3OB2O)c2cc(F)c(O)c(O)c2Cl)C1=O)c1ccccc1 (stereo partly drawn) [Example 242, (3R)-3-(2-(3-(2-benzamidoethyl)-2-oxoimidazolidine-1-carboxamido)-2-(2-chloro-5-fluoro-3,4-dihydroxyphenyl)acetamido)-7-fluoro-2-hydroxy-3,4-dihydro-2H-benzo[e][1,2]oxaborinine-8-carboxylic acid]
MIC (P. aeruginosa ATCC 27853): 2 to 4 µg/mL (≈ 2.85 to 5.7 µM)
MIC (N. gonorrhoeae WHO Z): 16 to 32 µg/mL (≈ 22.8 to 45.6 µM)
MIC (N. gonorrhoeae WHO G): 16 to 32 µg/mL (≈ 22.8 to 45.6 µM)
IC50 [1]: > 250 µM
MIC (N. gonorrhoeae FA1090): 1 to 2 µg/mL (≈ 1.42 to 2.85 µM)

O=C(NCCN1CCN(C(=O)NC(C(=O)N[C@H]2Cc3ccc(F)c(C(=O)O)c3OB2O)c2cc(F)c(O)c(O)c2Cl)C1=O)c1ccc(O)cc1 (stereo partly drawn) [Example 243, (3R)-3-(2-(2-chloro-5-fluoro-3,4-dihydroxyphenyl)-2-(3-(2-(4-hydroxybenzamido)ethyl)-2-oxoimidazolidine-1-carboxamido)acetamido)-7-fluoro-2-hydroxy-3,4-dihydro-2H-benzo[e][1,2]oxaborinine-8-carboxylic acid]
MIC (P. aeruginosa ATCC 27853): < 1 µg/mL
MIC (N. gonorrhoeae WHO Z): 16 to 32 µg/mL (≈ 22.3 to 44.6 µM)
MIC (N. gonorrhoeae WHO G): 16 to 32 µg/mL (≈ 22.3 to 44.6 µM)
IC50 [1]: > 250 µM
MIC (N. gonorrhoeae FA1090): 4 to 8 µg/mL (≈ 5.57 to 11.1 µM)

O=C(NCCN1CCN(C(=O)NC(C(=O)N[C@H]2Cc3ccc(F)c(C(=O)O)c3OB2O)c2cc(F)c(O)c(O)c2Cl)C1=O)c1cccc(O)c1 (stereo partly drawn) [Example 244, (3R)-3-(2-(2-chloro-5-fluoro-3,4-dihydroxyphenyl)-2-(3-(2-(3-hydroxybenzamido)ethyl)-2-oxoimidazolidine-1-carboxamido)acetamido)-7-fluoro-2-hydroxy-3,4-dihydro-2H-benzo[e][1,2]oxaborinine-8-carboxylic acid]
MIC (P. aeruginosa ATCC 27853): 2 to 4 µg/mL (≈ 2.79 to 5.57 µM)
MIC (N. gonorrhoeae WHO Z): > 64 µg/mL
MIC (N. gonorrhoeae WHO G): 16 to 32 µg/mL (≈ 22.3 to 44.6 µM)
IC50 [1]: > 250 µM
MIC (N. gonorrhoeae FA1090): 4 to 8 µg/mL (≈ 5.57 to 11.1 µM)
